According to US20090215778A1, “Alpha-substituted Arylmethyl Piperazine Pyrazolo [1,5-alpha]Pyrimidine Amide Derivatives” (priority 2007, published 2009):

Columns and labels:
[1] = target: T1, HIV Env six-helix bundle (6HB) structure (Human immunodeficiency virus type 1 group M subtype B, UniProt P04579); test: Six-helix bundle (6HB) assay; format: cell-based, HIV-1 (strain RF)
T1 construct: H9 cells chronically infected with HIV-1 (H9/HIV-1RF); endogenous in cells; host or cells: H9 cells chronically infected with HIV-1 strain RF (Env is made from the virus in the infected cells, not by transfection)
Description: 3×10^6H9 cells were incubated with 1 mL of HIV-1 (strain RF) supplemented with 40 μg/mL of DEAE-dextran. Virus and cells were incubated together at 37° C. for 2-4 hours with sporadic shaking to resuspend cells. 10 mL of media (RPMI 1640 containing 10% fetal bovine serum and supplemented with 50 μg/mL gentamicin) was then added and the virus-cell coculture was incubated at 37° C. in a humidified 5% CO2 incubator. 3 days post-infection and every 2-3 days thereafter, the infected H9/HIV-1RF cells were centrifuged, the supernatant was removed, and the cells were resuspended at a density of 0.3×10^6 cells/mL in media (RPMI 1640 containing 10% fetal bovine serum and supplemented with 50 μg/mL gentamicin). Chronically infected H9/HIV-1RF cells were used in experiments starting 12-15 days after infection and up to 40 days post-infection.
This assay determines the effect of compounds on conformational changes in HIV envelope glycoprotein (Env) that are required in order for Env to mediate the fusion of the viral and cellular membranes during virus entry and infection. Specifically, this assay measures the effect of compounds on the formation of the HIV Env six-helix bundle (6HB) structure.
H9 cells chronically infected with HIV-1 (H9/HIV-1RF) were resuspended in Stain/Wash Buffer (1% bovine serum albumin, 0.1% sodium azide in phosphate-buffered saline) and aliquoted at 2.5×10^5 cells per well into 96-well V-bottom plates containing various concentrations of test compounds. Cells and compounds were incubated for 30 minutes at 37° C. Recombinant soluble CD4 (sCD4) was then added to a final concentration of 1 μg/mL. Negative control wells contained no sCD4 and no test compound. Positive control wells contained sCD4 but no test compound. The plate was incubated for 1 hour at 37° C. to allow the sCD4 to bind to HIV Env and induce conformational changes in the Env protein. Antibody that is specific for the HIV Env six-helix bundle conformation was then added (1 μL polyclonal rabbit serum per well), and the plate was incubated for an additional 1 hour at 37° C. to permit antibody binding. The cells were then washed once with Stain/Wash Buffer to remove compound and excess antibody. The cells were resuspended in Stain/Wash Buffer containing PE-labeled anti-rabbit secondary antibody (KPL) at 0.25 μg per well. The cells were incubated for 45 min at 4° C. to permit secondary antibody binding. Fluorescence was detected using a BD FACSArray™ bioanalyzer. Compounds that inhibited Env conformational changes were identified as those that decreased primary antibody binding to the six-helix bundle epitope resulting in a decrease in fluorescence signal.

HIV-1, NL4-3 strain = test: Virus infection assay (virus entry and single-cycle infection); format: cell-based; details: Human immunodeficiency virus 1, NL43, TZM-b1, read-out: Nl4
Description: TZM-b1 indicator cells were propagated in Dulbecco's Modified Eagle's Medium (DMEM) containing 10% fetal bovine serum (FBS, heat-inactivated) and supplemented with gentamicin (50 ug/mL).
This assay determines the effects of compounds on virus entry and single-cycle infection of cells. In this assay, virus (HIV-1, NL4-3 strain) is added to indicator cells expressing the CD4 receptor and both the CXCR4 and CCR5 co-receptor. The cells contain both a lac Z and a luciferase reporter gene under control of the viral LTR transcription promoter. The cells and virus are incubated together in the presence of various concentrations of test compounds. Successful infection of the cells by the virus permits activation of the reporter gene by the viral Tat transcription factor. The resulting beta-galactosidase or luciferase activity is quantitated using a chemiluminescent substrate and a luminescent plate reader.
Specifically, one day prior to infection, 1.5×10^4 TZM-b1 indicator cells were added to each well of a 96-well microtiter plate. On the day of the experiment, virus (MOI 0.01) in 50 μL of medium (Dulbecco's Modified Eagle's Medium) supplemented with DEAE-dextran at a final concentration of 80 μg/mL was added to cells along with various concentrations of test compound in 50 μL of Dulbecco's Modified Eagle's Medium. Control wells had virus alone. Following a 4 hr incubation at 37° C., complete media [DMEM supplemented with 10% fetal bovine serum (FBS, heat-inactivated) and gentamicin (50 ug/mL)] was added. One day post-infection the level of virus infection was quantitated by detection of β-galactosidase expression using the Gal-Screen system (Applied Biosystems).

T1 sequence (P04579 32-519): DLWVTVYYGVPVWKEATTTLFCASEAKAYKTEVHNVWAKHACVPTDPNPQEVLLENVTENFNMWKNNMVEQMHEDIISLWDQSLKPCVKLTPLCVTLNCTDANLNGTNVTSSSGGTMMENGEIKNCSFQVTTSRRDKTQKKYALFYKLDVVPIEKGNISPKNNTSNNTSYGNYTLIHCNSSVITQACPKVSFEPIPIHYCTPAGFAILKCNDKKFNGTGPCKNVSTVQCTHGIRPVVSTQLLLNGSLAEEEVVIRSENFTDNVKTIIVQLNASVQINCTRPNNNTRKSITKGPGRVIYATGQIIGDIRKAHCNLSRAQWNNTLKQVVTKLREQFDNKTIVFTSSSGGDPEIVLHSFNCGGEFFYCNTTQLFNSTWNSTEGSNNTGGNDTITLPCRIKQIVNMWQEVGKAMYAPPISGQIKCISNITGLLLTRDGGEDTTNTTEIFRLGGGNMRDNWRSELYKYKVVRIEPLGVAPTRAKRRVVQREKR
T1 sequence (P04579 520-865): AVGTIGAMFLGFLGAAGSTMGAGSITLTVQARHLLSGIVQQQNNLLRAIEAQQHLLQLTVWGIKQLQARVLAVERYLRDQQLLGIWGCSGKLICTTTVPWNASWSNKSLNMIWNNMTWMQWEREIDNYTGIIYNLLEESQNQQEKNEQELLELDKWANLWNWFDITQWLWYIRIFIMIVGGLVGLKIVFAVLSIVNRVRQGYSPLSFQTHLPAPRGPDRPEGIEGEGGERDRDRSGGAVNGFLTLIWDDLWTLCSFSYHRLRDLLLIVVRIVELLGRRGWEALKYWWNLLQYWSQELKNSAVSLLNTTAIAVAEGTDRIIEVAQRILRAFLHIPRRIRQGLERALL

| Structure (SMILES) | IC50 [1] | IC50 (HIV-1, NL4-3 strain) |
| --- | --- | --- |
| COc1ccc(-c2nc3c(C(=O)N4CCN([C@@H](C)c5cc(F)c(F)c(F)c5)C[C@H]4C)cnn3c(C(F)(F)F)c2C)cc1 [methanone, [5-(4-methoxyphenyl)-6-methyl-7-(trifluoromethyl)pyrazolo[1,5-α]pyrimidin-3-yl][(2R)-2-methyl-4-[(1S)-1-(3,4,5-trifluorophenyl)ethyl]-1-piperazinyl]-] | < 1 µM | < 1 µM |
| COc1ccc(-c2nc3c(C(=O)N4CCN(C(CO)c5cccc(C(F)(F)F)c5)C[C@H]4C)cnn3c(C(F)(F)F)c2C)cc1 (stereo partly drawn) [methanone, [(2R)-4-[2-hydroxy-1-[3-(trifluoromethyl)phenyl]ethyl]-2-methyl-1-piperazinyl][5-(4-methoxyphenyl)-6-methyl-7-(trifluoromethyl)pyrazolo[1,5-α]pyrimidin-3-yl]-] | < 1 µM | 1.1 to 10 µM |
| COc1ccc(-c2nc3c(C(=O)N4CCN([C@@H](CO)c5cccc(OC)c5F)C[C@H]4C)cnn3c(C(F)(F)F)c2C)cc1 [methanone, [(2R)-4-[(1R)-1-(2-fluoro-3-methoxyphenyl)-2-hydroxyethyl]-2-methyl-1-piperazinyl][5-(4-methoxyphenyl)-6-methyl-7-(trifluoromethyl)pyrazolo[1,5-α]pyrimidin-3-yl]-] | < 1 µM | < 1 µM |
| COc1ccc(-c2nc3c(C(=O)N4CCN([C@@H](CO)c5ccccc5)C[C@H]4C)cnn3c(C(F)(F)F)c2C)cn1 [methanone, [(2R)-4-[(1R)-2-hydroxy-1-phenylethyl]-2-methyl-1-piperazinyl][5-(6-methoxy-3-pyridinyl)-6-methyl-7-(trifluoromethyl)pyrazolo[1,5-α]pyrimidin-3-yl]-] | < 1 µM | < 1 µM |
| COc1ccc(-c2nc3c(C(=O)N4CCN(C(CO)c5ccc(OC)cc5OC)C[C@H]4C)cnn3c(C(F)(F)F)c2C)cc1 (stereo partly drawn) [methanone, [(2R)-4-[1-(2,4-dimethoxyphenyl)-2-hydroxyethyl]-2-methyl-1-piperazinyl][5-(4-methoxyphenyl)-6-methyl-7-(trifluoromethyl)pyrazolo[1,5-α]pyrimidin-3-yl]-] | < 1 µM | < 1 µM |
| COc1ccc(-c2nc3c(C(=O)N4CCN(C(CO)c5ccccc5Br)C[C@H]4C)cnn3c(C(F)(F)F)c2C)cc1 (stereo partly drawn) [methanone, [(2R)-4-[1-(2-bromophenyl)-2-hydroxyethyl]-2-methyl-1-piperazinyl][5-(4-methoxyphenyl)-6-methyl-7-(trifluoromethyl)pyrazolo[1,5-α]pyrimidin-3-yl]-] | < 1 µM | < 1 µM |
| COc1ccc(-c2nc3c(C(=O)N4CCN([C@@H](C)c5cc(F)cc(F)c5)C[C@H]4C)cnn3c(C(F)(F)F)c2C)cc1 [methanone, [(2R)-4-[(1S)-1-(3,5-difluorophenyl)ethyl]-2-methyl-1-piperazinyl][5-(4-methoxyphenyl)-6-methyl-7-(trifluoromethyl)pyrazolo[1,5-α]pyrimidin-3-yl]-] | < 1 µM | < 1 µM |
| COc1ccc(-c2nc3c(C(=O)N4CCN(C(CO)c5cccc(Cl)c5)C[C@H]4C)cnn3c(C(F)(F)F)c2C)cc1 (stereo partly drawn) [methanone, [(2R)-4-[1-(3-chlorophenyl)-2-hydroxyethyl]-2-methyl-1-piperazinyl][5-(4-methoxyphenyl)-6-methyl-7-(trifluoromethyl)pyrazolo[1,5-α]pyrimidin-3-yl]-] | < 1 µM | < 1 µM |
| COc1ccc(-c2nc3c(C(=O)N4CCN(C(CO)c5cccc(S(N)(=O)=O)c5)C[C@H]4C)cnn3c(C(F)(F)F)c2C)cc1 (stereo partly drawn) [benzenesulfonamide, 3-[2-hydroxy-1-[(3R)-4-[[5-(4-methoxyphenyl)-6-methyl-7-(trifluoromethyl)pyrazolo[1,5-α]pyrimidin-3-yl]carbonyl]-3-methyl-1-piperazinyl]ethyl]-] | > 10.1 µM | > 10.1 µM |
| COc1ccc(-c2nc3c(C(=O)N4CCN(C(CO)c5ccc(F)cc5F)C[C@H]4C)cnn3c(C(F)(F)F)c2C)cc1 (stereo partly drawn) [methanone, [(2R)-4-[1-(2,4-difluorophenyl)-2-hydroxyethyl]-2-methyl-1-piperazinyl][5-(4-methoxyphenyl)-6-methyl-7-(trifluoromethyl)pyrazolo[1,5-α]pyrimidin-3-yl]-] | < 1 µM | < 1 µM |
| COc1ccc(-c2nc3c(C(=O)N4CCN(C(CO)c5cccc(F)c5F)C[C@H]4C)cnn3c(C(F)(F)F)c2C)cc1 (stereo partly drawn) [methanone, [(2R)-4-[1-(2,3-difluorophenyl)-2-hydroxyethyl]-2-methyl-1-piperazinyl][5-(4-methoxyphenyl)-6-methyl-7-(trifluoromethyl)pyrazolo[1,5-α]pyrimidin-3-yl]-] | < 1 µM | < 1 µM |
| COc1ccc(-c2nc3c(C(=O)N4CCN(C(CO)c5cccc(NC(C)=O)c5)C[C@H]4C)cnn3c(C(F)(F)F)c2C)cc1 (stereo partly drawn) [acetamide, N-[3-[2-hydroxy-1-[(3R)-4-[[5-(4-methoxyphenyl)-6-methyl-7-(trifluoromethyl)pyrazolo[1,5-α]pyrimidin-3-yl]carbonyl]-3-methyl-1-piperazinyl]ethyl]phenyl]-] | < 1 µM | < 1 µM |
| COc1ccc(-c2nc3c(C(=O)N4CCN([C@@H](C)c5nccs5)C[C@H]4C)cnn3c(C(F)(F)F)c2C)cc1 [methanone, [5-(4-methoxyphenyl)-6-methyl-7-(trifluoromethyl)pyrazolo[1,5-α]pyrimidin-3-yl][(2R)-2-methyl-4-[(1S)-1-(2-thiazolyl)ethyl]-1-piperazinyl]-] | < 1 µM | < 1 µM |
| COc1ccc(-c2nc3c(C(=O)N4CCN([C@H](CO)c5cccc(OC)c5)C[C@H]4C)cnn3c(C(F)(F)F)c2C)cc1 [methanone, [(2R)-4-[(1S)-2-hydroxy-1-(3-methoxyphenyl)ethyl]-2-methyl-1-piperazinyl][5-(4-methoxyphenyl)-6-methyl-7-(trifluoromethyl)pyrazolo[1,5-α]pyrimidin-3-yl]-] | < 1 µM | < 1 µM |
| COc1ccc(-c2nc3c(C(=O)N4CCN([C@@H](c5ccccc5)C(F)(F)F)C[C@H]4C)cnn3c(C(F)(F)F)c2C)cc1 [methanone, [5-(4-methoxyphenyl)-6-methyl-7-(trifluoromethyl)pyrazolo[1,5-α]pyrimidin-3-yl][(2R)-2-methyl-4-[(1S)-2,2,2-trifluoro-1-phenylethyl]-1-piperazinyl]-] | < 1 µM | < 1 µM |
| COc1ccc(-c2nc3c(C(=O)N4CCN(C(CO)c5c(F)ccc(F)c5F)C[C@H]4C)cnn3c(C(F)(F)F)c2C)cc1 (stereo partly drawn) [methanone, [(2R)-4-[2-hydroxy-1-(2,3,6-trifluorophenyl)ethyl]-2-methyl-1-piperazinyl][5-(4-methoxyphenyl)-6-methyl-7-(trifluoromethyl)pyrazolo[1,5-α]pyrimidin-3-yl]-] | < 1 µM | < 1 µM |
| COc1ccc(-c2nc3c(C(=O)N4CCN([C@@H](CO)c5cc(C)cs5)C[C@H]4C)cnn3c(C(F)(F)F)c2C)cc1 [methanone, [(2R)-4-[(1S)-2-hydroxy-1-(4-methyl-2-thienyl)ethyl]-2-methyl-1-piperazinyl][5-(4-methoxyphenyl)-6-methyl-7-(trifluoromethyl)pyrazolo[1,5-α]pyrimidin-3-yl]-] | < 1 µM | < 1 µM |
